“And” between values parts separate entries of the source, which are not always exact repeats. Equal entries are not always repeated. “Also recorded” adds a separate entry of the source.
What was measured:
[1] = system: ST486 cells; assay: Growth inhibition of PIKfyve-mediated tumor cells by Cell Titer Glo method, ST486; format: cell-based; conditions: Homo sapiens, 120 h, CellTiter-Glo, 5 days of culture, read-out: Inhibition rate % (ST486)
Experimental: (§1) IV. Determination of Growth Inhibition Rates of Compounds Against PIKfyve-Mediated Tumor Cells by Cell Titer Glo Method
(§2) 1. Cell plating: cells in logarithmic growth phase were counted and inoculated in 384-well plate.
(§3) 3. […] RLU was measured on PHERAstar Plus.

[2] = system: Toledo cells; assay: Growth inhibition of PIKfyve-mediated tumor cells by Cell Titer Glo method, Toledo; format: cell-based; conditions: Homo sapiens, 120 h, CellTiter-Glo, 5 days of culture, read-out: Inhibition rate % (Toledo)
Experimental: as §1, §2, §3

[3] = target: PIKfyve protein (Homo sapiens (Human), UniProt Q9Y2I7); assay: Dissociation equilibrium constant (Kd) of compound and PIKfyve protein, DiscoverX KINOMEscan; format: binding; conditions: eleven 3-fold dilutions, curve fitting
Chain of PIKfyve protein (Q9Y2I7 whole entry): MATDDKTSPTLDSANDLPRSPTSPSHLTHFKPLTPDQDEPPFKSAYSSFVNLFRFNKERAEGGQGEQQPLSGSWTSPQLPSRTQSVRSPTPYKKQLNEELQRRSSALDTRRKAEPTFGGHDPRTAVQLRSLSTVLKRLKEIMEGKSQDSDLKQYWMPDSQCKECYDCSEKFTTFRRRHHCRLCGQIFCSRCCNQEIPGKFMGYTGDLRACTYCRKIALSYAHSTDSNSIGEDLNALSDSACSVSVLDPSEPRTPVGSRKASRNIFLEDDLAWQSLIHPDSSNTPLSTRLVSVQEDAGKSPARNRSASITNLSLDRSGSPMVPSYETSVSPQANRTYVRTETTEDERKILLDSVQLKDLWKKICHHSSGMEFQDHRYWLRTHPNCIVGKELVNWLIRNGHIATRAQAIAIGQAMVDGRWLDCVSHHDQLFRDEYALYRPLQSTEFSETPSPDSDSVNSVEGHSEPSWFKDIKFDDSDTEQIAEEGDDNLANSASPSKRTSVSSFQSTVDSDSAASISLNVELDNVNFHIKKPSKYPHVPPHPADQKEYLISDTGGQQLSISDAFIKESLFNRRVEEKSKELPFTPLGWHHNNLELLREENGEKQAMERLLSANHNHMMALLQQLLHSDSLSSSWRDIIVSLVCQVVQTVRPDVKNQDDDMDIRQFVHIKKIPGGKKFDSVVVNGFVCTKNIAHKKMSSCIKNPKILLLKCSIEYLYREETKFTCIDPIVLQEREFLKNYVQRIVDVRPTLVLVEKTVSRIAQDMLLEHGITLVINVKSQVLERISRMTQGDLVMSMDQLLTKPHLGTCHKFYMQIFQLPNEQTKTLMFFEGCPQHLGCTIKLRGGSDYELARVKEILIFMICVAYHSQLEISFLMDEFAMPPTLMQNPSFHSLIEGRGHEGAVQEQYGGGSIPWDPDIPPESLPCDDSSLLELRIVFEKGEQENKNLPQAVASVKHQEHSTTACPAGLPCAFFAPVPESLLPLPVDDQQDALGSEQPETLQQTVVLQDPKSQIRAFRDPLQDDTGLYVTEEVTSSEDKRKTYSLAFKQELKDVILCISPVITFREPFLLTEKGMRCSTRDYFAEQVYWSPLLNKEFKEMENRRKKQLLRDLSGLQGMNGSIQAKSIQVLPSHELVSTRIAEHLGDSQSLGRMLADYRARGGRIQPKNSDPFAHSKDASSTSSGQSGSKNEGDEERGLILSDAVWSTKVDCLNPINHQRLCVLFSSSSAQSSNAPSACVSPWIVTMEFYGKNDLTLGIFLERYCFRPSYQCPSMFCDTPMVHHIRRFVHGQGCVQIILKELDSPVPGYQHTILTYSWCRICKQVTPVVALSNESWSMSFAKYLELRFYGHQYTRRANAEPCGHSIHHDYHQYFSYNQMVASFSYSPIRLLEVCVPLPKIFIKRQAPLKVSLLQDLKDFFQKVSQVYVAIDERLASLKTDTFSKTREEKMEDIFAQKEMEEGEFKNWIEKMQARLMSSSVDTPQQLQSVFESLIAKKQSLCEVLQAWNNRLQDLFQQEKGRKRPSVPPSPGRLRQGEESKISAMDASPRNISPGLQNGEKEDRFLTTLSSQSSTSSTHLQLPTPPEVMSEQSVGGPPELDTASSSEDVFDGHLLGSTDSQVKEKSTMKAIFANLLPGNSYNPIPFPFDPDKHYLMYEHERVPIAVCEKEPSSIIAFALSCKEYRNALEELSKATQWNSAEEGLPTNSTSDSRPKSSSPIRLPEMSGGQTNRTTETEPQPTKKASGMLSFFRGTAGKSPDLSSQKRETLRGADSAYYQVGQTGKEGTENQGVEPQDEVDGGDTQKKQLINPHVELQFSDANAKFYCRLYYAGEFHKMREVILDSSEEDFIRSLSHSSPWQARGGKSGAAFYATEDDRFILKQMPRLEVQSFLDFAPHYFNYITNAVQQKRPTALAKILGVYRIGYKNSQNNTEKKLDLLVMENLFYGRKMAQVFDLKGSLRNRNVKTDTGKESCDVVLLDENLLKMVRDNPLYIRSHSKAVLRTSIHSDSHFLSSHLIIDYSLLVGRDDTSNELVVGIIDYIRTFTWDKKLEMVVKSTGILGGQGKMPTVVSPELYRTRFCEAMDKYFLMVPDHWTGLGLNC
Experimental: II. Determination of Dissociation Equilibrium Constant (Kd Value) of Compound and PIKfyve Protein
The Kd value was determined by DiscoverX's KINOMEscan™ technology according to the following steps:
1. Preparation of magnetic beads: biotin-labeled small molecule ligand and avidin-coated magnetic beads were allowed to interact at room temperature for 30 minutes, and then added with excess biotin, followed by washing with a blocking solution (1% BSA, 0.05% Tween 20, 1 mM DTT) to remove unbound ligand.
2. Binding reaction: in a 384 plate, 0.02 mL system, DNA-labeled protein, small molecule ligand-bound magnetic beads, and different concentrations of compound to be tested were mixed in a reaction solution (0.17×PBS, 0.05% Tween 20, 6 mM DTT) at room temperature with shaking for 1 hr, to which was added an eluant (1×PBS, 0.05% Tween 20) for elution. Magnetic beads were resuspended by an eluant (1×PBS, 0.05% Tween 20, 0.5 μM non-biotin-labeled small molecule ligand), and shaken at room temperature for 30 min before separating out the eluant.
3. Determination of Kd value: the content of protein in the above eluate was determined by qPCR. Eleven 3-fold dilution concentrations were determined for the compound to be tested, with 3 DMSO controls for each concentration, and the Kd value was obtained by curve fitting.

[4] = system: MDA-MB-231 cells; assay: Vacuolation of MDA-MB-231 cells caused by inhibition of compounds on PIKfyve (microscopy); format: cell-based; conditions: for degree of vacuolation, 1 μM, 24 h / degree of vacuolation, 1 μM, 48 h / degree of vacuolation, 10 μM, 24 h / degree of vacuolation, 10 μM, 48 h: MDA-MB-231 cells; on degree of vacuolation, 1 μM, 24 h: key: '+' represents the degree of vacuolation; ++: more '+' indicates more obvious vacuolation; +++: more '+' indicates more obvious vacuolation; ++++: more '+' indicates more obvious vacuolation; '−' represents no vacuolation; on degree of vacuolation, 1 μM, 48 h: key: '+' represents the degree of vacuolation; ++: more '+' indicates more obvious vacuolation; +++: more '+' indicates more obvious vacuolation; ++++: more '+' indicates more obvious vacuolation; '−' represents no vacuolation; on degree of vacuolation, 10 μM, 24 h: key: '+' represents the degree of vacuolation; ++: more '+' indicates more obvious vacuolation; +++: more '+' indicates more obvious vacuolation; ++++: more '+' indicates more obvious vacuolation; '−' represents no vacuolation; on degree of vacuolation, 10 μM, 48 h: key: '+' represents the degree of vacuolation; ++: more '+' indicates more obvious vacuolation; +++: more '+' indicates more obvious vacuolation; ++++: more '+' indicates more obvious vacuolation; '−' represents no vacuolation
How it was run: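 MDA-MB-231 cells in 12-well plates at 37 °C, 5% CO2 were observed by microscopy after 24 and 48 h of culture for cytoplasmic vacuolation as a readout of PIKfyve inhibition. Scoring was semi-quantitative, from − (none) to increasing +.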

[5] = system: JeKo-1 cells; assay: Tumor cell growth inhibition by MTS method, JeKo-1; format: cell-based; conditions: Homo sapiens, JeKo-1, 120 h, 5 days of culture; for inhibition at 10 µM: read-out: cell growth inhibition rate of compounds at 10 μM
Experimental: III. Determination of IC50 Value of Compound for Inhibiting Tumor Cell Growth by MTS Method
1. Cell plating: cells in logarithmic growth phase were counted and inoculated in a 96-well plate (20000 cells per well).
2. Administrating agent to cell: 10 mM compound mother solution in DMSO was subjected to 3 fold-gradient dilution, to set 8 concentrations, which were then added to various wells, with three replicates for each concentration, and three blank wells (only culture medium) and three negative controls (containing 0.1% DMSO) on each plate.
3. […] The OD value at 490 nm was measured with microplate reader OD490. The cell growth inhibition rate was calculated by the following formula: Cell growth inhibition rate %=1−(ODexperimental group−ODblank group)/(ODnegative group−ODblank group)×100%
The semi-inhibitory concentration IC50 of the compound acting on cell growth was calculated using GradPad Prism 5 software according to the measured cell growth inhibition rate.
In the following table it lists the IC50 value or the inhibition rates of some compounds at 10 μM against JeKo-1 cells

SMILES	inhibition at 3.3 µM [1]	inhibition at 3.3 µM [2]	Kd [3]	degree of vacuolation, 1 μM, 24 h [4]	degree of vacuolation, 1 μM, 48 h [4]	degree of vacuolation, 10 μM, 24 h [4]	degree of vacuolation, 10 μM, 48 h [4]	IC50 [5]	inhibition at 10 µM [5]	vacuolation of MDA-MB-231 cells (FIG. 1) ([4]; 1 μmol/L, time and concentration dependence)
Cc1ccc(NS(=O)(=O)c2cccc(C(F)(F)F)c2)cc1Nc1nc(-c2cccnc2)c2[nH]ccc2n1 [V-c-20]	33.3%	99.7%	1000 nM	−	++	−	++	9410 nM		
Cc1ccc(NC(=O)Nc2cccc(C(F)(F)F)c2)cc1Nc1nc(-c2cccnc2)c2[nH]ccc2n1 [V-c-15]	57.5%	99.6%	140 nM	++	++	++	++		35.1%	
COc1ccc(C(F)(F)F)cc1NC(=O)c1ccc(C)c(Nc2nc(-c3cccnc3)c3[nH]ccc3n2)c1 [V-c-12]	72.3%	95.6%	> 30000 nM	+++	+++	+++	+++	2790 nM		
c1cncc(-c2nc(Nc3cc(N4CCOCC4)cc(N4CCOCC4)c3)nc3cc[nH]c23)c1 [V-c-2]	18%	< 10%	2000 nM	−	−	−	−			
Cc1ccc(NC(=O)c2ccc(CN3CCN(C)CC3)c(C(F)(F)F)c2)cc1Nc1nc(-c2cccnc2)c2[nH]ccc2n1 [V-c-22]	57.1%	64.2%	21000 nM					1540 nM		
Cc1ccc(C(=O)Nc2cccc(C(F)(F)F)c2)cc1Nc1nc(-c2cccnc2)c2[nH]ccc2n1 [V-c-7]	91.3%	95.8%		++	++	+	+	3280 nM		
O=C(Nc1cccc(Nc2nc(-c3cccnc3)c3[nH]ccc3n2)c1)c1cccc(C(F)(F)F)c1 [V-c-18]	96%	95.2%	6.4 nM	+++	+++	+++	+++	862 nM		
Cc1cc(NC(=O)c2cccc(C(F)(F)F)c2)ccc1Nc1nc(-c2cccnc2)c2[nH]ccc2n1 [V-c-24]	55.8%	97.3%	> 30000 nM							
Cc1ccc(C(=O)Nc2cc(C(F)(F)F)ccc2F)cc1Nc1nc(-c2cccnc2)c2[nH]ccc2n1 [V-c-13]	85.2%	99.7%	16 nM	++	−	++	++		34.3%	
Cc1ccc(NC(=S)Nc2cccc(C(F)(F)F)c2)cc1Nc1nc(-c2cccnc2)c2[nH]ccc2n1 [V-c-16]	60.3%	99.5%	110 nM	++	++	++	++	6220 nM		
Cc1ccc(NC(=O)c2cccc(C(F)(F)F)c2)cc1Nc1nc(-c2cccnc2)c2[nH]ccc2n1 [V-c-19]	70.6%	97.3%	16 nM and 15 nM	+++	+++	+++	+++	2090 nM		induces vacuolation of MDA-MB-231 cells, with good time dependence; also recorded: induces vacuolation of MDA-MB-231 cells, with good concentration dependence
CS(=O)(=O)Nc1cccc(Nc2nc(-c3cccnc3)c3[nH]ccc3n2)c1 [V-c-1]	35.2%	43.1%	130 nM	−	−	++	++			

Source: US11352354B2, “Substituted penta-fused hexa-heterocyclic compounds, preparation method therefor, drug combination and use thereof” (Xiamen University, priority 2017, dated 2022)
